This note sets out measurements from patent publication US12643871B2, “Aryl formamide compound containing chiral sulfur oxide or salt thereof, preparation method, herbicidal composition and use thereof” (Qingdao Kingagroot Chemical Compound Co., Ltd., priority 2019, dated 2026).

For data set [1], the system named is Rice. In words: Transplanted rice safety evaluation. Type of data set: in vivo, rice (japonica rice/Indica rice). The note with it: 60 g/ha; transplanted 3 leaf stage rice, 21 days after treatment. The source says:
(§1) The activity level criteria for harmful plant damage (i.e., growth control rate) are as follows: • Level 5: growth control rate is above 85%; • Level 4: growth control rate is greater than or equal to 60% and less than 85%; • Level 3: growth control rate is greater than or equal to 40% and less than 60%; • Level 2: growth control rate is greater than or equal to 20% and less than 40%; • Level 1: growth control rate is greater than or equal to 5% and less than 20%; • Level 0: growth control rate is less than 5%.
In addition, the rice field soil that loaded into the 1/1,000,000 ha pot was leveled to keep water storage at 3-4 cm depth. The 3 leaf stage rice (japonica rice/Indica rice) was transplanted at 3 cm of transplanting depth the next day. The compound of the present invention was treated by the same way after 5 days of transplantation.
(§2) The fertility condition of Echinochloa crusgali, Scirpus juncoides, Bidens tripartita, Leptochloa chinensis, Sagittaria trifolia and Monochoria vaginalis 14 days after the treatment of the compound of the invention and the fertility condition of rice 21 days after the treatment of the compound of the invention respectively with the naked eye. Evaluate the weed control effect with 0-5 activity standard level. Many compounds show excellent activity and selectivity.

Data set [2] relates to Leptochloa chinensis. Kind of data set: Weed control effect evaluation in rice field. The data set is classed as in vivo. The note with it: 60 g/ha; rice field pot, 14 days after treatment.
From the text: as §1
(§3) Rice field soil was loaded into a 1/1,000,000 ha pot. The seeds of Echinochloa crusgali, Scirpus juncoides, Bidens tripartita, Sagittaria trifolia, Monochoria vaginalis and Leptochloa chinensis were sowed and gently covered with soil, then left to stand still in greenhouse in the state of 0.5-1 cm of water storage. The tuber of Sagittaria trifolia was planted in the next day or 2 days later. It was kept at 3-4 cm of water storage thereafter. The weeds were treated by dripping the WP or SC water diluents prepared according to the common preparation method of the compounds of the present invention with pipette homogeneously to achieve specified effective amount when Echinochloa crusgali, Scirpus juncoides, Bidens tripartita, Monochoria vaginalis and Leptochloa chinensis reached 0.5 leaf stage and Sagittaria trifolia reached the time point of primary leaf stage.
as §2

Data set [3] has as its system Monochoria vaginalis. Kind of data set: Weed control effect evaluation in rice field. The data set is classed as in vivo. The note with it: 60 g/ha; rice field pot, 14 days after treatment; ALS-inhibitor resistant weed from Heilongjiang.
From the text: as §1, §3, §2

Data set [4] has as its system Echinochloa crusgali. Kind of data set: Weed control effect evaluation in rice field. The data set is classed as in vivo. The note with it: 60 g/ha; rice field pot, 14 days after treatment; ALS-inhibitor resistant weed from Heilongjiang.
From the text: as §1, §3, §2

The test system of data set [5] is Sagittaria trifolia. In words: Weed control effect evaluation in rice field. The data set is classed as in vivo. The note with it: 60 g/ha; rice field pot, 14 days after treatment; ALS-inhibitor resistant weed from Heilongjiang.
From the text: as §1, §3, §2

For data set [6], the system named is Digitaria sanguinalis. In words: Weeding effect in post-emergence stage. Type of data set: in vivo. The note with it: 250 g/ha; 2 leaf stage; 15 days after application; fresh weight control rate. A digest of the protocol:
(§4)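 Greenhouse pot-grown weeds were sprayed at the 2-leaf stage, 2 weeks after sowing, with compound in acetone/Tween 80 plus 1.5 L/ha methyl oleate EC, at 500, 250, 125, 60, 30 or 15 g/ha. Fresh-weight growth control was scored 15 days later on a 0–5 scale, mean of three repeats.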

The test system of data set [7] is Amaranthus retroflexus. In words: Weeding effect in post-emergence stage. The data set is classed as in vivo. The note with it: 250 g/ha; 2 leaf stage; 15 days after application; fresh weight control rate. A digest of the protocol: as §4
Data set [8] relates to Abutilon theophrasti. Kind of data set: Weeding effect in post-emergence stage. The data set is classed as in vivo. The note with it: 250 g/ha; 2 leaf stage; 15 days after application; fresh weight control rate. An outline of the steps: as §4
The test system of data set [9] is Setaria viridis. In words: Weeding effect in post-emergence stage. The data set is classed as in vivo. The note with it: 250 g/ha; 2 leaf stage; 15 days after application; fresh weight control rate. A digest of the protocol:
as §4

Data set [10] concerns Echinochloa crusgali. Kind of data set: Weeding effect in post-emergence stage. The data set is classed as in vivo. The note with it: 250 g/ha; 2 leaf stage; 15 days after application; fresh weight control rate. A digest of the protocol: as §4

The structures appear in SMILES notation.

Turning to `CC[S@@+]([O-])c1c(C(F)(F)F)ccc(C(=O)Nc2nnc(C)o2)c1SC` [Compound 548], the “Herbicidal effects of compounds, Rice, 0-5 activity standard level” value in data set [1] was 0 (Level 0: growth control rate is less than 5%). Besides, the “Herbicidal effects of compounds, Leptochloa chinensis, 0-5 activity standard level” value in data set [2] is listed as 5 (Level 5: growth control rate is above 85%). Further, the “Herbicidal effects of compounds, Monochoria vaginalis, 0-5 activity standard level” value in data set [3] was 5 (Level 5: growth control rate is above 85%). Further, in [4], the “Herbicidal effects of compounds, Echinochloa crusgali, 0-5 activity standard level” value is on record as 5 (Level 5: growth control rate is above 85%). In data set [5], the “Herbicidal effects of compounds, Sagittaria trifolia, 0-5 activity standard level” value is listed as 5 (Level 5: growth control rate is above 85%). Also, in data set [6], the “weeding effect in post-emergence stage, activity level (growth control rate), Digitaria sanguinalis” value is on record as 5 (Level 5: growth control rate is above 85%). Moreover, in [7], the “weeding effect in post-emergence stage, activity level (growth control rate), Amaranthus retroflexus” value was 5 (Level 5: growth control rate is above 85%). Moreover, in data set [8], the “weeding effect in post-emergence stage, activity level (growth control rate), Abutilon theophrasti” value was 5 (Level 5: growth control rate is above 85%). Also, the “weeding effect in post-emergence stage, activity level (growth control rate), Setaria viridis” value in [9] is listed as 5 (Level 5: growth control rate is above 85%). Further, in data set [10], the “weeding effect in post-emergence stage, activity level (growth control rate), Echinochloa crusgali” value was 5 (Level 5: growth control rate is above 85%).
